Test results taken from ChEMBL document CHEMBL1201862, “PubChem BioAssay data set” (2004).
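Five concentrations, 48 hours, 96-well plates. The concentration for 50% growth inhibition is given as GI50.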 Active and inactive are the calls of the source. Cut-off read from the data, not from the text of the source: active = GI50 up to about 1.1 µM and inactive = higher.

Experiments:
Experiment in all cases: growth of human tumour cells (NCI), 48 h
[1] = test system: 786-0
[2] = test system: LOX IMVI
[3] = test system: HOP-92
[4] = test system: HCT-15
[5] = test system: SF-268
[6] = test system: SF-295
[7] = test system: HCT-116
[8] = test system: HCC 2998
[9] = test system: T47D
[10] = test system: MOLT-4
[11] = test system: U-251
[12] = test system: SNB-19
[13] = test system: HOP-62
[14] = test system: SK-MEL-28
[15] = test system: SF-539
[16] = test system: Malme-3M
[17] = test system: NCI/ADR-RES
[18] = test system: NCI-H23
[19] = test system: SR
[20] = test system: HT-29

Compound | GI50 [1] | GI50 [2] | GI50 [3] | GI50 [4] [µM] | GI50 [5] | GI50 [6] | GI50 [7] | GI50 [8] | GI50 [9] | GI50 [10] | GI50 [11] | GI50 [12] | GI50 [13] | GI50 [14] | GI50 [15] | GI50 [16] | GI50 [17] | GI50 [18] | GI50 [19] | GI50 [20]
Cc1cn(C2CC(n3cc(Cn4cc(Br)c(=O)[nH]c4=O)nn3)C(CO)O2)c(=O)[nH]c1=O (stereo not drawn) | 93.1 µM (inactive) | > 100 µM (inactive) | 20.4 µM (inactive) | > 100 | > 100 µM (inactive) | 41.9 µM (inactive) | 52.5 µM (inactive) | > 100 µM (inactive) | > 100 µM (inactive) | 30.7 µM (inactive) | 39.1 µM (inactive) | 37.8 µM (inactive) | > 100 µM (inactive) | > 100 µM (inactive) | > 100 µM (inactive) | > 100 µM (inactive) | 68.2 µM (inactive) | > 100 µM (inactive) |  | 
COC(=O)c1cc(C)n(CN(Cc2ccccc2)Cn2nc(C(=O)OC)cc2C)n1 | 68.1 µM (inactive) | > 100 µM (inactive) | > 73.5 µM (inactive) | > 40.7 | > 89.9 µM (inactive) | > 79.8 µM (inactive) | > 43 µM (inactive) |  | > 48.3 µM (inactive) | > 100 µM (inactive) | > 100 µM (inactive) | > 100 µM (inactive) | > 100 µM (inactive) | > 81.5 µM (inactive) | > 45.9 µM (inactive) | > 100 µM (inactive) | > 100 µM (inactive) | > 100 µM (inactive) | 0.873 µM (active) | > 52.7 µM (inactive)
COC(=O)c1c(O)ccc2c1c1c(n2Cc2ccc(Cl)cc2Cl)C(=O)c2ccccc2C1 | 74.5 µM (inactive) | 27 µM (inactive) |  | 42.7 | 32.5 µM (inactive) |  | 87.9 µM (inactive) |  | 40.6 µM (inactive) | 39.1 µM (inactive) | 38 µM (inactive) | 61.7 µM (inactive) | > 100 µM (inactive) | 45.2 µM (inactive) | 54.5 µM (inactive) | 97.7 µM (inactive) | 34 µM (inactive) | 60 µM (inactive) | 36.3 µM (inactive) | 79.6 µM (inactive)
Clc1cc(Cl)cc(C2ON=C(c3ccccc3)N2C23CC4CC(CC(C4)C2)C3)c1 (stereo not drawn) | > 10 µM (inactive) | > 10 µM (inactive) | 0.643 µM (active) | > 10 | > 10 µM (inactive) | > 10 µM (inactive) | > 10 µM (inactive) | > 10 µM (inactive) | > 10 µM (inactive) | > 10 µM (inactive) | > 10 µM (inactive) | > 10 µM (inactive) | > 10 µM (inactive) | > 10 µM (inactive) | > 10 µM (inactive) | > 10 µM (inactive) | > 10 µM (inactive) | > 10 µM (inactive) |  | > 10 µM (inactive)
CC(C)CC(N)C(=O)Nc1ccc2ccccc2c1 (stereo not drawn) | > 100 µM (inactive) | > 100 µM (inactive) |  | > 100 | > 100 µM (inactive) | > 100 µM (inactive) | > 100 µM (inactive) | > 100 µM (inactive) | > 100 µM (inactive) | > 100 µM (inactive) | > 100 µM (inactive) | > 100 µM (inactive) | > 100 µM (inactive) | > 100 µM (inactive) | > 100 µM (inactive) | > 100 µM (inactive) | > 100 µM (inactive) | > 100 µM (inactive) | > 100 µM (inactive) | > 100 µM (inactive)
COc1ccccc1N1C(=O)C2C3c4ccccc4C(OC(C)=O)(c4ccccc43)C2C1=O (stereo not drawn) | 39.3 µM (inactive) | > 100 µM (inactive) |  | > 100 | 30.8 µM (inactive) | 78.7 µM (inactive) | 57.3 µM (inactive) | > 100 µM (inactive) | > 100 µM (inactive) | > 100 µM (inactive) | 60.7 µM (inactive) | 17.1 µM (inactive) | 97.9 µM (inactive) | 71.9 µM (inactive) | 72.1 µM (inactive) | 33.8 µM (inactive) | > 100 µM (inactive) | > 100 µM (inactive) | > 100 µM (inactive) | > 100 µM (inactive)
COc1cccc(C2c3cc4c(cc3OC(N3CCOCC3)C2C)OCO4)c1OC (stereo not drawn) | 5.22 µM (inactive) | 3.06 µM (inactive) |  | 4.36 | 9.59 µM (inactive) | 2.84 µM (inactive) | 2.98 µM (inactive) | 10.4 µM (inactive) | 3.2 µM (inactive) | 4.28 µM (inactive) |  | 3.81 µM (inactive) | 11.4 µM (inactive) | 13.4 µM (inactive) | 10.6 µM (inactive) |  | 4.58 µM (inactive) | 14.8 µM (inactive) | 4.75 µM (inactive) | 2.96 µM (inactive)
